Reference: patent US7964598B2 (The J. David Gladstone Institutes, priority 1995, dated 2011)

Assays:
[1] = test system: apoE4 enhancement of Aβ production; experiment: Aβ production assay, B103-APP cells incubated with apoE4; format: cell-based, rat; conditions: RAP 25 nM, preincubated 1 h
Protocol: Aβ production assay. Stable neuroblastoma B103 cell lines transfected with a wildtype hAPP cDNA construct (B 103-APP) were selected by growing them in Dulbecco's modified Eagle's medium (DMEM) containing 10% fetal calf serum (FBS) and 400 μg/ml G418. A cell line expressing APP at similar levels in mouse brains has been identified by RNase protection assay (RPA) and was used in the studies described below. To determine Aβ production, B103-APP cells were incubated with serum-free minimal essential medium (MEM) containing N2 supplements with or without apoE isoforms for 24 h at 37° C. After incubation, 50 μl of medium was collected and assayed for Aβ levels with an ELISA method. The cells were lysed, and cellular proteins were determined by the Lowry method. AP production was normalized to cellular protein.
Cell Culture. Rat neuroblastoma B103 cells stably expressing human wildtype APP (hAPP695wt) (Xu et al. ((1999) Proc. Natl. Acad. Sci. USA 96:7547-7552; Esposito, et al. (2004) J. Neurochem. 91:1260-1274) were generated in Dr. Lennart Mucke's laboratory at the Gladstone Institute of Neurological Disease and maintained in Dulbecco's modified Eagle's medium (DMEM) (GIBCO, Grand Island, N.Y.) containing 400 μg/ml G418, 10% fetal bovine serum, and 5% horse serum at 37° C. Twenty-four hours after plating into 48-well plates (1×10^5 cells per well), cells were washed twice with serum-free DMEM and cultured for another 24 h in DMEM containing 1% N-2 supplement (GIBCO) to induce differentiation. The cells were treated with either β-VLDL (25 μg/ml cholesterol), recombinant human apoE isoform-enriched β-VLDL (7.5 μg/ml apoE and 25 μg/ml cholesterol), or recombinant human apoE (7.5 μg/ml apoE) in fresh DMEM containing 1% N-2 supplement for an additional 24 h. In some experiments, RAP (25 nM or 1 μM) was added to the cells 1 h before apoE treatment.
Aβ Assay. Aβ secreted into the medium was detected with a sandwich enzyme-linked immunosorbent assay (ELISA), using mAb 266 as a capturing antibody and 3D6 as a detecting antibody, as described. Johnson-Wood et al. ((1997) Proc. Natl. Acad. Sci. USA 94:1550-1555). Aβ was quantified from a standard curve (Aβ42; Bachem, Torrance, Calif.) and normalized by total cellular protein.

[2] = test system: apoE4-expressing Neuro-2a cells; experiment: Neurite outgrowth, apoE4-expressing Neuro-2a cells; format: cell-based, mouse; conditions: in the presence of β-VLDL
Protocol: Cells were grown in DME/F12 containing 10% FBS and G418 (400 μg/ml). On the day the experiment was initiated, the cells were subcultured into 35 mm plates in DME/F12 with 10% FBS. The cells were allowed to adhere to the plastic plates for 2 hr at 37° C., and then the culture medium was changed to N2 medium with or without increasing concentrations of lipoproteins. After 48 hr at 37° C., the media were replaced with the same medium (with or without lipoproteins), and the incubation was continued for an additional 48 hr. […] Neurons were imaged in fluorescence mode with a confocal laser scanning system (MRC-600, BioRad, Hercules, Calif.), and the images were digitized with an Image-1/AT image analysis system (Universal Images, West Chester, Pa.). The neuronal images were coded before characterization, and the following variables were measured: 1) number of neurites (defined as cell surface projections at least one-half the cell diameter) on each neuron; 2) neurite branching (the number of branch points on each neurite); and 3) neurite extension (the length of the longest neurite, measured from the cell body). Typically, in each experiment the neurites of 20 to 40 neurons per plate were measured and the results preserved as the mean±S.E.M. […]

Neuro-2a cells = experiment: Binding of DiI-labeled LDL to Neuro-2a cells; format: cell-based, mouse; conditions: 5 μg/ml of RAP

RAP: receptor-associated protein, 39-kD glycoprotein, LRP antagonist
apoE4 enhancement of Aβ production [1]: abolished the apoE4-induced enhancement of Aβ production
inhibition of neurite extension seen in the apoE4-expressing cells [2]: blocked the inhibition of neurite extension
binding of DiI-labeled LDL to the Neuro-2a cells (Neuro-2a cells): did not block
